# Source: EP1581471B9, “CYCLOPENTENONE DERIVATIVES FOR CANCER THERAPY” (Dabur Research Foundation, priority 2002, dated 2004)
# What was measured:
# PTC = test: three day MTT cytotoxicity assay; assay type: cell-based, human; conditions: PTC (colon), 72 hours
# Method: (§1) A number of the cyclopentenone derivatives were tested for cytotoxicity against 9 human tumor cell lines. Briefly, a three day MTT cytotoxicity assay was performed, which is based on the principle of uptake of MTT (3-(4,5-dimethylthiazol-2-yl)-2,5-diphenyl tetrazolium bromide), a tetrazolium salt, by the metabolically active cells where it is metabolized by active mitochondria into a blue colored formazan product that is read spectrophotometrically. MTT was dissolved in phosphate buffered saline with a pH of 7.4 to obtain an MTT concentration of 5mg/ml; the resulting mixture was filtered through a 0.22 micron filter to sterilize and remove a small amount of insoluble residue. For each type of tumor cell, 10000 to 15000 cells were seeded in a 96-well culture plate and incubated with the individual cyclopentenone derivatives in a CO2 incubator for a total of 72 hours. Control cells not treated with the cyclopentenone derivatives were similarly incubated. The assay was terminated by adding 100 ug (20 ul) of MTT to each well, then incubating for additional one hour, and finally adding 50 ul of 10% SDS-0.01N HCl to each well to lyse the cells and dissolve formazan. After incubating for one hour, the plate was read spectrophotometrically at 540 nm and the percentage of cytotoxicity calculated using the following formula: Cytotoxicity percentage = 100 × [1-(X/R1)], [formula] where X = (absorbance of treated sample at 540 nm) - (absorbance of blank at 540 nm) R1 = absorbance of control sample at 540 nm.
# (§2) The ED50 Values of the cytotoxicity defined as the concentration at which 50 % of the cells are killed in vitro was calculated for each cell line treated with each of the cyclopentenone derivatives.
# (§3) The cell lines are PTC (all colon), MOLT-4 (leukemia), SW620 […], DU145 (prostate), KB (oral squamous cell), L132 (lung), MIAPaCa2 (Pancreas), Hep2, (larynx), PA-1 (ovary), HuTu80 (duodenum), ECV 304 (endothelial), and 293 (kidney).
# MOLT-4 = test: three day MTT cytotoxicity assay; assay type: cell-based, human; conditions: MOLT-4 (leukemia), 72 hours
# Method: as §1, §2, §3
# ECV 304 = test: three day MTT cytotoxicity assay; assay type: cell-based, human; conditions: ECV 304 (endothelial), 72 hours
# Method: as §1, §2, §3
# HuTu80 = test: three day MTT cytotoxicity assay; assay type: cell-based, human; conditions: HuTu80 (duodenum), 72 hours
# Method: as §1, §2, §3
# 293 = test: three day MTT cytotoxicity assay; assay type: cell-based, human; conditions: 293 (kidney), 72 hours
# Method: as §1, §2, §3
# PA-1 = test: three day MTT cytotoxicity assay; assay type: cell-based, human; conditions: PA-1 (ovary), 72 hours
# Method: as §1, §2, §3
# Hep2 = test: three day MTT cytotoxicity assay; assay type: cell-based, human; conditions: Hep2 (larynx), 72 hours
# Method: as §1, §2, §3
# KB = test: three day MTT cytotoxicity assay; assay type: cell-based, human; conditions: KB (oral squamous cell), 72 hours
# Method: as §1, §2, §3
# DU145 = test: three day MTT cytotoxicity assay; assay type: cell-based, human; conditions: DU145 (prostate), 72 hours
# Method: as §1, §2, §3
# SW620 = test: three day MTT cytotoxicity assay; assay type: cell-based, human; conditions: 72 hours
# Method: as §1, §2, §3
# L132 = test: three day MTT cytotoxicity assay; assay type: cell-based, human; conditions: L132 (lung), 72 hours
# Method: as §1, §2, §3
# MIAPaCa2 = test: three day MTT cytotoxicity assay; assay type: cell-based, human; conditions: MIAPaCa2 (Pancreas), 72 hours
# Method: as §1, §2, §3
# VEGF = VEGF levels in ECV304 endothelial cells (ELISA); assay type: cell-based, Human; conditions: 5ug/ml, 4 hours
# Method: Human endothelial cells (ECV304) were plated at the density of 8-10 x10^5 cells per 2 ml in a six well plate. After an overnight incubation of cells at 37°C, cyclopentenone derivatives at a concentration of 5ug/ml was added to the wells. The untreated wells served as controls. The plates were incubated for 4 hours at 37°C. The medium was collected from all the wells (control and treated) and spun down at 2000 r.p.m to remove the cellular material. The supernatant was collected and used for ELISA (Quantikine human VEGF, R&D Systems). The assay employs the quantitative sandwich enzyme immunoassay technique. A monoclonal antibody specific for VEGF has been pre-coated onto a microplate. Standards and samples were pipetted into the wells and VEGF present was bound by the immobilized antibody. After washing away the unbound substances, an enzyme-linked polyclonal antibody specific for VEGF was added to the wells. Following a wash to remove any unbound antibody-enzyme reagent, a substrate solution was added to the wells and color developed in proportion to the amount of VEGF bound in the initial step. The optical density of each well was determined within 30 minutes using a microplate reader set to 450nm and reference wavelength at 540nm. The VEGF levels were inhibited by the addition of cyclopentenone derivatives in vitro.
# Caspase-3 = Caspase-3 induction in KB cells (colorimetric substrate DEVD-pNA); assay type: cell-based, Human; conditions: 5ug/ml
# Method: Human squamous cell carcinoma (KB) were plated in a 25 cm^2 flask. When cultures achieved confluence, the cyclopentenone derivative of structure 20 was added to the cells. The final concentration of derivative of the structure 20 in the flask was 5ug/ml. The untreated wells served as controls. The cells were incubated with the drug for 2 different time points of 6 and 16 hours at 37°C. The cells were collected by centrifugation at 2000 r.p.m. for 10 minutes. The supernatant was gently removed and discarded while Lysis Buffer was added to the cell pellet (25ul of lysis buffer per […]). The cell lysate was incubated on ice for 10 minutes and centrifuged at 10,000-x g for 1 minute. The supernatant was transferred to a new tube and kept on ice. 50ul of the cell lysate was added in a 96 well plate. To this was added 2x Reaction Buffer. Prior to using reaction buffer, 10ul of fresh DTT stock per 1 ml of 2x Reaction Buffer was added. To each well 5ul of Caspase-3 colorimetric substrate (DEVD-pNA) was added. The plate was incubated for 1-2 hours at […]. and read at 405nm.
# The level of caspase enzymatic activity in the cell lysate is directly proportional to the absorbance at 405nm. […]
# tubulin = tubulin polymerization in vitro (absorbance at 340 nm); assay type: biochemical; conditions: tubulin 1mg/ml, 37°C, pH 6.9; read-out: IC50 values (uM) for inhibition of Tubulin Polymerization
# Method: The cyclopentenone derivatives were checked for their effects on tubulin polymerization in vitro. Briefly, the tubulin assembly reaction was performed at 37°C in buffer containing 80 mM PIPES, 1mM EGTA, 1.0 mM GTP and 1mM MgCl2 (pH 6.9) at a tubulin concentration of 1mg/ml in the presence or absence of the cyclopentenone derivatives. The final concentration of the cyclopentenone derivatives in the reaction mixture varied from 1-5uM. The derivatives were dissolved in 0.1% DMSO. The control experiments were carried out with 0.1% DMSO. The tubulin polymerization was followed by measurement of the absorbance of the solution at 340 nm every 30 seconds. […] Thus the cyclopentenone derivatives mediated their observed anticancer activities by tubulin depolymerization.
SMILES,ED50 (ug/ml) PTC (PTC),ED50 (ug/ml) MOLT4 (MOLT-4),ED50 (ug/ml) ECV 304 (ECV 304),ED50 (ug/ml) HuTu80 (HuTu80),ED50 (ug/ml) 293 293,ED50 (ug/ml) PA1 (PA-1),ED50 (ug/ml) Hep2 (Hep2),ED50 (ug/ml) KB (KB),ED50 (ug/ml) DU145 (DU145),ED50 (ug/ml) SW620 (SW620; SW620 (colon)),ED50 (ug/ml) L132 (L132),ED50 (ug/ml) MiaPaca (MIAPaCa2),Percent Reduction in VEGF (VEGF),Percent Induction of Caspase-3 6 hours (Caspase-3),Percent Induction of Caspase-3 16 hours (Caspase-3),IC50 (tubulin),ED50 (ug/ml) SW620 (SW620; SW620 (ovary))
"COc1ccc(C2=C(c3cc(OC)c(OC)c(OC)c3)C(=O)C(O[Si](C)(C)C(C)(C)C)C2)cc1OC(C)C (stereo not drawn) [Compound 56, 5-tert-Butyldimethylsilyloxy-3-(4-methoxy-3-i-propoxyphenyl)-2-(3,4,5-trimethoxyphenyl)-cyclopent-2-en-1-one]",>100 µg/mL,22.5 ± 4.0 µg/mL,>100 µg/mL,6 ± 0.5 µg/mL,>100 µg/mL,7.1 ± 1.5 µg/mL,7.1 ± 1.5 µg/mL,7.5 ± 3.5 µg/mL,6.3 ± 2.1 µg/mL,9 ± 1.5 µg/mL,7 µg/mL,>100 µg/mL,,,,,
COc1ccc(C2=C(c3cc(OC)c(OC)c(OC)c3)C(=O)C(O)C2)cc1 (stereo not drawn) [Compound 48],6.0 ± 1.5 µg/mL,<1.0 µg/mL,>100 µg/mL,,,<1.0 µg/mL,<1.0 µg/mL,8 ± 2.1 µg/mL,>100 µg/mL,,9.0 ± 3.3 µg/mL,79 ± 9.5 µg/mL,23.7 ± 2.2%,18.4 ± 1.1%,22.7 ± 1.5%,2.1 ± 0.1 µM,<1.0 µg/mL
COc1ccc(C2=C(c3cc(OC)c(OC)c(OC)c3)C(=O)C(O)C2)cc1O (stereo not drawn) [Compound 74],,,,,,,,,,,,,16.9 ± 0.5%,21.8 ± 2.8%,28.4 ± 2.1%,1.8 ± 0.5 µM,
"COc1ccc(C2=C(c3cc(OC)c(OC)c(OC)c3)C(=O)C(O)C2)cc1F (stereo not drawn) [Compound 64, 5-Hydroxy-3-(3-fluoro-4-methoxyphenyl)-2-(3,4,5-trimethoxyphenyl)-cyclopent-2-en-1-one]",20 ± 2.5 µg/mL,,19.5 ± 4.5 µg/mL,<1 µg/mL,>100 µg/mL,,<1 µg/mL,4.5 ± 1.5 µg/mL,27 ± 3.5 µg/mL,<1 µg/mL,<1 µg/mL,64 ± 3.5 µg/mL,,,,,
"COc1ccc(C2=C(c3cc(OC)c(OC)c(OC)c3)C(=O)C(O[Si](C)(C)C(C)(C)C)C2)cc1 (stereo not drawn) [Compound 52, O-tert-Butyldimethylsilyloxy-3-(4-methoxyphenyl)-2-(3,4,5-trimethoxyphenyl)-cyclopent-2-en-1-one]",16 ± 3.6 µg/mL,3.0 ± 1.5 µg/mL,16 ± 4.0 µg/mL,,,7.0 ± 3.5 µg/mL,16 ± 3.0 µg/mL,7.0 ± 3.0 µg/mL,28 ± 4.0 µg/mL,,9.0 ± 2.5 µg/mL,<1.0 µg/mL,,,,,5.0 ± 1.0 µg/mL
"COc1cc(C2=C(c3ccc(SC)cc3)CC(O[Si](C)(C)C(C)(C)C)C2=O)cc(OC)c1OC (stereo not drawn) [Compound 55, 5-tert-Butyldimethylsilyloxy-3-(4-thiomethylphenyl)-2-(3,4,5 trimethoxyphenyl)-cyclopent-2-en-1-one]",14 ± 3.5 µg/mL,<1.0 µg/mL,>100 µg/mL,,,<1.0 µg/mL,>100 µg/mL,10 ± 1.5 µg/mL,>100 µg/mL,,<1.0 µg/mL,<1.0 µg/mL,,,,,<1.0 µg/mL
COc1ccc(C2=C(c3cc(OC)c(OC)c(OC)c3)/C(=N\O)C(O)C2)cc1F (stereo not drawn) [Compound 66],27 ± 3.5 µg/mL,,43 ± 4.5 µg/mL,9 ± 3.1 µg/mL,>100 µg/mL,,<1 µg/mL,<1 µg/mL,10 ± 5.1 µg/mL,<1 µg/mL,<1 µg/mL,94 ± 10.0 µg/mL,12.9 ± 2.9%,17.0 ± 1.0%,22.1 ± 0.6%,2 ± 0.6 µM,
"COc1ccc(C2=C(c3cc(OC)c(OC)c(OC)c3)C(=O)C(O)C2)cc1Cl (stereo not drawn) [Compound 67, 5-Hydroxy-3-(3-chloro-4-methoxyphenyl)-2-(3,4,5-trimethoxyphenyl)-cyclopent-2-en-1-one]",30 ± 4.0 µg/mL,,20 ± 3.5 µg/mL,29 ± 2.5 µg/mL,>100 µg/mL,,<1 µg/mL,2.5 ± 0.1 µg/mL,40 ± 8.5 µg/mL,,<1 µg/mL,>100 µg/mL,,,,,<1 µg/mL
